Key:
POAAN [1] = assay: Herbicidal post-emergence action 1b (twin sowing, 1280 g/ha); format: in vivo, Poa annua; conditions: dosage 1280 g/ha, visual rating about 3 weeks after treatment
Procedure: (§1) [table] b) Seeds of mono- and dicotyledonous weed plants are placed in plastic pots in sandy loam soil (twin sowing with one species each of mono- or dicotyledonous weed plants per pot), covered with soil and cultivated in a greenhouse under controlled growth conditions. 2 to 3 weeks after sowing, the test plants are treated at the one-leaf stage. The compounds of the invention, formulated in the form of wettable powders (WP) or as emulsion concentrates (EC), are applied to the green parts of the plants as aqueous suspension or emulsion with addition of 0.5% additive at a water application rate equivalent to 600 litres per hectare. After the test plants have been kept in the greenhouse under optimum growth conditions for about 3 weeks, the activity of the preparations is rated visually in comparison to untreated controls. For example, 100% activity=the plants have died, 0% activity=like control plants. Tables A16 to A21 below show the effects of selected compounds of the general formula (I) according to Tables 1 and 2 on various harmful plants and at an application rate corresponding to 1280 g/ha, which were obtained by the experimental procedure mentioned above.

POAAN [2] = assay: Herbicidal pre-emergence action 2b (doubly sown, 1280 g/ha); format: in vivo, Poa annua; conditions: doubly sown pots, dosage 1280 g/ha, visual scoring after about 3 weeks
Description: (§2) [table] b) Seeds of mono- and dicotyledonous weed plants are placed in plastic pots in sandy loam soil (doubly sown with one species each of mono- or dicotyledonous weed plants per pot) and covered with soil. The compounds of the invention, formulated in the form of wettable powders (WP) or as emulsion concentrates (EC), are then applied onto the surface of the covering soil as aqueous suspension or emulsion with addition of 0.5% additive at a water application rate equivalent to 600 litres per hectare. After the treatment, the pots are placed in a greenhouse and kept under good growth conditions for the trial plants. After about 3 weeks, the effect of the preparations is scored visually in comparison with untreated controls as percentages. For example, 100% activity=the plants have died, 0% activity=like control plants. Tables B16 to B21 below show the effects of selected compounds of the general formula (I) according to Tables 1 and 2 on various harmful plants and at an application rate corresponding to 1280 g/ha, which were obtained by the experimental procedure mentioned above.

AMARE [3] = assay: as above; format: in vivo, Amaranthus retroflexus; conditions: doubly sown pots, dosage 1280 g/ha, visual scoring after about 3 weeks
Description: as §2

DIGSA = assay: as above; format: in vivo, Digitaria sanguinalis; conditions: doubly sown pots, dosage 1280 g/ha, visual scoring after about 3 weeks
Description: as §2

MATIN [4] = assay: Herbicidal post-emergence action 1b (twin sowing, 1280 g/ha); format: in vivo, Matricaria inodora; conditions: dosage 1280 g/ha, visual rating about 3 weeks after treatment
Procedure: as §1

ECHCG [5] = assay: Herbicidal pre-emergence action 2b (doubly sown, 1280 g/ha); format: in vivo, Echinochloa crus-galli; conditions: doubly sown pots, dosage 1280 g/ha, visual scoring after about 3 weeks
Description: as §2

MATIN [6] = assay: as above; format: in vivo, Matricaria inodora; conditions: doubly sown pots, dosage 1280 g/ha, visual scoring after about 3 weeks
Description: as §2

STEME [7] = assay: as above; format: in vivo, Stellaria media; conditions: doubly sown pots, dosage 1280 g/ha, visual scoring after about 3 weeks
Description: as §2

LOLRI = assay: Herbicidal pre-emergence action 2a (greenhouse pots, visual scoring); format: in vivo, Lolium rigidum; conditions: dosage 320 g/ha, visual scoring after about 3 weeks vs untreated controls
Description: (§3) [table] a) Seeds of monocotyledonous and dicotyledonous weed plants and crop plants are placed in plastic or organic plant pots and covered with soil. The compounds of the invention, formulated in the form of wettable powders (WP) or as emulsion concentrates (EC), are then applied onto the surface of the covering soil as aqueous suspension or emulsion with addition of 0.5% additive at a water application rate of 600 1/ha (converted). After the treatment, the pots are placed in a greenhouse and kept under good growth conditions for the trial plants. After about 3 weeks, the effect of the preparations is scored visually in comparison with untreated controls as percentages. For example, 100% activity=the plants have died, 0% activity=like control plants. Tables B1 to B15 below show the effects of selected compounds of the general formula (I) according to Tables 1 and 2 on various harmful plants and an application rate corresponding to 320 g/ha and/or 80 g/ha, which were obtained by the experimental procedure mentioned above.

AVEFA [8] = assay: as above; format: in vivo, Avena fatua; conditions: dosage 320 g/ha, visual scoring after about 3 weeks
Description: as §3

ECHCG [9] = assay: Herbicidal post-emergence action 1a (greenhouse pots, visual rating); format: in vivo, Echinochloa crus-galli; conditions: Dosage 320 g/ha; rated visually about 3 weeks after treatment; 100% = plants have died, 0% = like control plants
Procedure: (§4) [table] a) Seeds of monocotyledonous and dicotyledonous weeds and crop plants are placed in sandy loam in plastic or organic plant pots, covered with soil and cultivated in a greenhouse under controlled growth conditions. 2 to 3 weeks after sowing, the test plants are treated at the one-leaf stage. The compounds of the invention, formulated in the form of wettable powders (WP) or as emulsion concentrates (EC), are then sprayed onto the green parts of the plants as aqueous suspension or emulsion with addition of 0.5% additive at a water application rate of 600 1/ha (converted). After the test plants have been kept in the greenhouse under optimum growth conditions for about 3 weeks, the activity of the preparations is rated visually in comparison to untreated controls. For example, 100% activity=the plants have died, 0% activity=like control plants. Tables A1 to A15 below show the effects of selected compounds of the general formula (I) according to Tables 1 and 2 on various harmful plants and an application rate corresponding to 320 g/ha and/or 80 g/ha, which were obtained by the experimental procedure mentioned above.

VERPE = assay: Herbicidal pre-emergence action 2a (greenhouse pots, visual scoring); format: in vivo, Veronica persica; conditions: dosage 320 g/ha, visual scoring after about 3 weeks vs untreated controls
Description: as §3

AVEFA [10] = assay: Herbicidal post-emergence action 1a (greenhouse pots, visual rating); format: in vivo, Avena fatua; conditions: Dosage 320 g/ha; rated visually about 3 weeks after treatment; 100% = plants have died, 0% = like control plants
Procedure: as §4

SETVI [11] = assay: as above; format: in vivo, Setaria viridis; conditions: rated visually about 3 weeks after treatment, 100% = plants have died, 0% = like control plants
Procedure: as §4

POLCO [12] = assay: as above; format: in vivo, Polygonum convolvulus; conditions: dosage 320 g/ha, visual rating about 3 weeks after treatment
Procedure: as §4

SETVI [13] = assay: Herbicidal pre-emergence action 2a (greenhouse pots, visual scoring); format: in vivo, Setaria viridis; conditions: dosage 320 g/ha, visual scoring after about 3 weeks vs untreated controls
Description: as §3

ALOMY [14] = assay: as above; format: in vivo, Alopecurus myosuroides; conditions: dosage 320 g/ha, visual scoring after about 3 weeks
Description: as §3

AMARE [15] = assay: Herbicidal post-emergence action 1a (greenhouse pots, visual rating); format: in vivo, Amaranthus retroflexus; conditions: dosage 320 g/ha, visual rating about 3 weeks after treatment
Procedure: as §4

AMARE [16] = assay: Herbicidal pre-emergence action 2a (greenhouse pots, visual scoring); format: in vivo, Amaranthus retroflexus; conditions: dosage 320 g/ha, visual scoring after about 3 weeks vs untreated controls
Description: as §3

POLCO [17] = assay: as above; format: in vivo, Polygonum convolvulus; conditions: dosage 320 g/ha, visual scoring after about 3 weeks vs untreated controls
Description: as §3

ALOMY [18] = assay: Herbicidal post-emergence action 1a (greenhouse pots, visual rating); format: in vivo, Alopecurus myosuroides; conditions: rated visually about 3 weeks after treatment, 100% = plants have died, 0% = like control plants
Procedure: as §4

STEME [19] = assay: Herbicidal post-emergence action 1b (twin sowing, 1280 g/ha); format: in vivo, Stellaria media; conditions: dosage 1280 g/ha, visual rating about 3 weeks after treatment
Procedure: as §1

MATIN [20] = assay: Herbicidal post-emergence action 1a (greenhouse pots, visual rating); format: in vivo, Matricaria inodora; conditions: dosage 320 g/ha, visual rating about 3 weeks after treatment
Procedure: as §4

MATIN [21] = assay: Herbicidal pre-emergence action 2a (greenhouse pots, visual scoring); format: in vivo, Matricaria inodora; conditions: dosage 320 g/ha, visual scoring after about 3 weeks vs untreated controls
Description: as §3

| Compound | Post-emergence action at 1280 g/ha against POAAN in % (POAAN [1]) [%] | Pre-emergence action at 1280 g/ha against POAAN in % (POAAN [2]) [%] | Pre-emergence action at 1280 g/ha against AMARE in % (AMARE [3]) [%] | Pre-emergence action at 1280 g/ha against DIGSA in % (DIGSA) [%] | Post-emergence action at 1280 g/ha against MATIN in % (MATIN [4]) [%] | Pre-emergence action at 1280 g/ha against MATIN in % (MATIN [6]) [%] | Pre-emergence action at 1280 g/ha against STEME in % (STEME [7]) [%] | Pre-emergence action against AMARE in % (AMARE [16]) [%] | Post-emergence action against ALOMY in % (ALOMY [18]; Dosage 80 g/ha) [%] | Post-emergence action against ALOMY in % (ALOMY [18]; Dosage 320 g/ha) [%] | also measured |
| --- | --- | --- | --- | --- | --- | --- | --- | --- | --- | --- | --- |
| O=C(O)COc1nn(-c2cnccn2)c(-c2ccc(F)c(F)c2)c1Br [Example I-41] | 100 | 100 | 100 | 100 | 90 | 100 | 100 |  |  |  | Pre-emergence action at 1280 g/ha against ECHCG in % (ECHCG [5]): 100% |
| COC(=O)CNC(=O)[C@@H](C)Oc1nn(-c2cnccn2)c(-c2ccc(F)nc2)c1Br [II-03] |  |  |  |  |  |  |  | 100 | 80 | 90 | Pre-emergence action against LOLRI in % (LOLRI): 100%; Pre-emergence action against AVEFA in % (AVEFA [8]): 100%; Post-emergence action against ECHCG in % (ECHCG [9]): 80%; Pre-emergence action against VERPE in % (VERPE): 100%; Post-emergence action against AVEFA in % (AVEFA [10]): 90%; Post-emergence action against SETVI in % (SETVI [11]; Dosage 80 g/ha): 90%; Post-emergence action against SETVI in % (SETVI [11]; Dosage 320 g/ha): 90%; Post-emergence action against POLCO in % (POLCO [12]): 80%; Pre-emergence action against SETVI in % (SETVI [13]): 100%; Pre-emergence action against ALOMY in % (ALOMY [14]): 100%; Post-emergence action against AMARE in % (AMARE [15]): 90%; Pre-emergence action against POLCO in % (POLCO [17]): 90% |
| COC(=O)[C@@H](C)Oc1nn(-c2cnccn2)c(-c2cnc(F)c(F)c2)c1Br [Example I-43] | 100 | 100 | 100 | 100 | 100 | 90 | 100 |  |  |  | Post-emergence action at 1280 g/ha against STEME in % (STEME [19]): 90% |
| O=C(O)COc1nn(-c2cnccn2)c(-c2ccc(F)nc2)c1C1CC1 [Example I-83] |  |  |  |  |  |  |  |  | 80 | 80 | Post-emergence action against MATIN in % (MATIN [20]): 80% |
| CCOC(=O)COc1nn(-c2nccnc2F)c(-c2ccc(F)nc2)c1Br [Example I-76] |  |  |  |  |  |  |  | 90 |  |  | Pre-emergence action against MATIN in % (MATIN [21]): 90% |

— patent publication US20230167088A1, “1-PYRAZINYLPYRAZOLYL-3-OXYALKYL ACIDS AND THEIR DERIVATIVES, AND THEIR USE FOR CONTROL OF UNDESIRED PLANT GROWTH” (BAYER AKTIENGESELLSCHAFT, priority 2020, published 2023)
